Laboratory results: patent US6407134B1, “Heterocyclecarbonyl amino acid hydroxyethylamino sulfonamide retroviral protease inhibitors” (G. D. Searle & Co., priority 1995, dated 2002)
Like-named read-outs stand apart in the source and are kept apart here.

Experiments:
[1] = target: T1, HIV protease (Human immunodeficiency virus type 1 group M subtype B, UniProt P04585); experiment: HIV protease enzyme assay (fluorescence, substrate 2-Ile-Nle-Phe(p-NO2)-Gln-ArgNH2); assay type: biochemical
T1 construct: HIV protease is diluted in the assay buffer to a final enzyme concentration of 12.3 nanomolar, based on a molecular weight of 10,780
Description: The compounds of the present invention are effective HIV protease inhibitors. Utilizing an enzyme assay as described below, the compounds set forth in the examples herein disclosed inhibited the HIV enzyme. The preferred compounds of the present invention and their calculated IC50 (inhibiting concentration 50%, i.e., the concentration at which the inhibitor compound reduces enzyme activity by 50%) values are shown in Table 10. The enzyme method is described below. The substrate is 2-Ile-Nle-Phe(p-NO2)-Gln-ArgNH2. The positive control is MVT-101 (Miller, M. et al, Science, 246, 1149 (1989)] The assay conditions are as follows:
20 mM sodium phosphate, pH 6.4
The above described substrate is dissolved in DMSO, then diluted 10 fold in assay buffer. Final substrate concentration in the assay is 80 μM. HIV protease is diluted in the assay buffer to a final enzyme concentration of 12.3 nanomolar, based on a molecular weight of 10,780.
The final concentration of DMSO is 14% and the final concentration of glycerol is 18%. The test compound is dissolved in DMSO and diluted in DMSO to 10× the test concentration; 10 μl of the enzyme preparation is added, the materials mixed and then the mixture is incubated at ambient temperature for 15 minutes. […] The increase in fluorescence is monitored at 4 time points (0, 8, 16 and 24 minutes) at ambient temperature. […]

[2] = system: HIV-1 in CEM cells; experiment: CEM cell assay: HIV inhibition in acutely infected cells, tetrazolium (MTT) based colorimetric assay; details: Human immunodeficiency virus 1, CCRF-CEM, 168 h; CEM cells acutely infected with HIV-1, 7 days, MTT readout
Method: The effectiveness of various compounds were determined in the above-described enzyme assay and in a CEM cell assay.
The HIV inhibition assay method of acutely infected cells is an automated tetrazolium based colorimetric assay essentially that reported by Pauwles et al, J. Virol. Methods, 20, 309-321 (1988). Assays were performed in 96-well tissue culture plates. CEM cells, a CD4+ cell line, were grown in RPMI-1640 medium (Gibco) supplemented with a 10% fetal calf serum and were then treated with polybrene (2 μg/ml). An 80 μl volume of medium containing 1×10^4 cells was dispensed into each well of the tissue culture plate. To each well was added a 100 μl volume of test compound dissolved in tissue culture medium (or medium without test compound as a control) to achieve the desired final concentration and the cells were incubated at 37° C. for 1 hour. […] Likewise, the intrinsic toxicity of the test compound was determined by adding medium without virus to several wells containing test compound. […]
Following the addition of virus, cells were incubated at 37° C. in a humidified, 5% CO2 atmosphere for 7 days. […] The absorbance at 590 nm was determined for each sample using a Molecular Devices microplate reader. Absorbance values for each set of wells is compared to assess viral control infection, uninfected control cell response as well as test compound by cytotoxicity and antiviral efficacy.

## CC(C)CN(C[C@@H](O)[C@H](Cc1ccccc1)NC(=O)[C@@H](NC(=O)[C@@H]1CCCN1)C(C)(C)C)S(=O)(=O)c1ccc2c(c1)OCO2 [Entry 1]
[1]
  IC50: 2 nM
[2]
  EC50: 12 nM

## CCC(C)[C@H](NC(=O)[C@@H]1CCCN1)C(=O)N[C@@H](Cc1ccccc1)[C@H](O)CN(CC(C)C)S(=O)(=O)c1ccc2c(c1)OCO2 (stereo partly drawn) [Entry 2]
[1]; HIV protease 12.3 nanomolar, substrate 80 μM, pH 6.4, ambient temperature, read-out: IC50
  IC50: 3 nM
